Data on 12 molecules can be found in EP3394284B1, “ENZYMATIC METHOD FOR THE EVALUATION OF XYLOSE” (Venter Pharma, S.L, priority 2015, dated 2017).

One data set concerns the target T1, 6His-tagged XylB (Caulobacter vibrioides, UniProt B8H1Z0).
T1 construct: 6His
T1 sequence (B8H1Z0 1-248): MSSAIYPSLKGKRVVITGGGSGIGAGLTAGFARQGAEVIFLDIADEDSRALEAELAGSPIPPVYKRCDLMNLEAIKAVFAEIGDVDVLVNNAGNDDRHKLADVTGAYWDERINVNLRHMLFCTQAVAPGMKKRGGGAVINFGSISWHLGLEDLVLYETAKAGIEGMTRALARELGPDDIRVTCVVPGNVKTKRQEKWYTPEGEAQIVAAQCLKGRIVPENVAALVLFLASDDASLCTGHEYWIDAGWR
The note with it: data taken from Stephens C, 2007; cited from earlier work.

A further data set addresses T2, Strep-TEV-XylB (Caulobacter vibrioides, UniProt B8H1Z0).
T2 construct: Strep tag; TEV cleavage site
T2 sequence (B8H1Z0 1-248): T1 sequence (B8H1Z0 1-248)
The note with it: data taken from Toivari M, 2012a; pH 9.0; cited from earlier work.

Data set [1] addresses T3, XylB-wt2 (Caulobacter vibrioides, UniProt B8H1Z0).
T3 construct: made in house; host or cells: E. coli BL21(DE3)
T3 sequence (B8H1Z0 1-248): T1 sequence (B8H1Z0 1-248)
Nature of the data set: Steady-state kinetic assays of purified XylB-wt2 for substrates and cofactor. The class given is biochemical, C. crescentus NA1000. The note with it: for activity as cofactor of XylB-wt2: NAD^+ and NADP^+ both assayed, 'the first one' = NAD^+ (NADP^+ gave no activity).

The target in data set [2] is T3, XylB-wt2. Nature of the data set: Substrate specificity: XylB-wt2 activity with mono- and disaccharides (NADH formation at 340 nm). In kind it is biochemical, C. crescentus NA1000.
Substrate in data set [3]: NC(=O)c1ccc[n+]([C@@H]2O[C@H](COP(=O)([O-])OP(=O)(O)OC[C@H]3O[C@@H](n4cnc5c(N)ncnc54)[C@H](O)[C@@H]3O)[C@@H](O)[C@H]2O)c1
Nature of the data set: Steady-state kinetic assays of purified XylB-wt2 for substrates and cofactor. The class given is biochemical, C. crescentus NA1000. The note with it: other: 25°C, pH 8.0, sugars with NAD^+ 0.5 mM, NAD^+ with D-xylose 5 mM.

[4] abbreviates: considering the enzyme as a homohexameric protein.
Setting [5] is: sugar concentration 100 mM, relative to D-xylose at 5 mM.
Setting [6] is: 25°C, pH 8.0, sugars with NAD^+ 0.5 mM, NAD^+ with D-xylose 5 mM, enzyme assumed monomer.
[7] abbreviates: sugar concentration 5 mM, relative to D-xylose.

With `NC(=O)c1ccc[n+]([C@@H]2O[C@H](COP(=O)([O-])OP(=O)(O)OC[C@H]3O[C@@H](n4cnc5c(N)ncnc54)[C@H](O)[C@@H]3O)[C@@H](O)[C@H]2O)c1` [NAD^+], at 6His-tagged XylB, the “Vmax (U·mg^-1)” value was 20.5 U·mg^-1. Also, on Strep-TEV-XylB, the Michaelis-Menten constant (Km) (commonly the substrate concentration at which the rate is half of its maximum) is 460 ± 50 µM and the kcat – broadly, the maximal rate divided by the concentration of active sites – is 1860 ± 65 min⁻¹. In addition, at XylB-wt2 [1], the “activity as cofactor of XylB-wt2” value is “only displayed activity with the first one”. At XylB-wt2 [1] (setting [4]), the “Vmax (U·mg^-1)” value is listed as 30.1 ±1.0 U·mg^-1.

As to D-Galactose, at XylB-wt2 [2] (sugar concentration 100 mM), the “Specific Activity (U/mg)” value was 0.5 U/mg. The “Relative Activity (%)” value on XylB-wt2 [2] (setting [5]) came to 2%.

As to D-Mannose, the “Specific Activity (U/mg)” value at XylB-wt2 [2] (sugar concentration 100 mM) is on record as 0.0 U/mg. In addition, on XylB-wt2 [2] (setting [5]), the “Relative Activity (%)” value is listed as 0%.

Take D-Xylose: the Km at 6His-tagged XylB is 760 µM; on Strep-TEV-XylB, 80 ± 20 µM; on XylB-wt2 [1] (25°C, pH 8.0, sugars with NAD^+ 0.5 mM, NAD^+ with D-xylose 5 mM), 41 ± 5 µM; at XylB-wt2 [1] (setting [4]), 41 ± 5 µM. Further, the “Vmax (U·mg^-1)” value at 6His-tagged XylB is 27.5 U·mg^-1; on XylB-wt2 [1] (setting [6]) it was 30.2 ±1.0 U·mg^-1; at XylB-wt2 [1] (setting [4]), 30.2 ±1.0 U·mg^-1. The turnover number (kcat) was 1360 ± 65 min⁻¹ on Strep-TEV-XylB and 812 ± 35 min⁻¹ on XylB-wt2 [1] (setting [6]). Besides, on XylB-wt2 [1] (XylB-wt2, pH 8.0), the “catalytic efficiencies (kcat/KM) ratio D-xylose/ D-glucose” value was 15000. Also, the “Specific Activity (U/mg)” value on XylB-wt2 [2] (sugar concentration 5 mM) came out at 30.0 U/mg. Besides, at XylB-wt2 [2] (setting [7]), the “Relative Activity (%)” value was determined as 100%.

As to “4-O-β-galactopyranosyl-D-xylose [Gaxilose]”, on XylB-wt2 [2] (sugar concentration 100 mM), the “Specific Activity (U/mg)” value was determined as 0.7 U/mg. The “Relative Activity (%)” value at XylB-wt2 [2] (setting [5]) is 2%.

In the case of `NC(=O)c1ccc[n+]([C@@H]2O[C@H](COP(=O)([O-])OP(=O)(O)OC[C@H]3O[C@@H](n4cnc5c(N)ncnc54)[C@H](OP(=O)(O)O)[C@@H]3O)[C@@H](O)[C@H]2O)c1` [NADP^+], the “activity as cofactor of XylB-wt2” value at XylB-wt2 [1] is listed as “only displayed activity with the first one”.

As to L-Arabinose, on XylB-wt2 [2] (sugar concentration 5 mM), the “Specific Activity (U/mg)” value was determined as 4.8 U/mg. Moreover, the “Relative Activity (%)” value at XylB-wt2 [2] (setting [7]) turned out to be 16%.

In the case of `OC[C@H]1O[C@H](O[C@H]2[C@H](O)[C@@H](O)C(O)O[C@@H]2CO)[C@H](O)[C@@H](O)[C@@H]1O` (mixture of isomers) [Maltose], the “Specific Activity (U/mg)” value on XylB-wt2 [2] (sugar concentration 100 mM) is 0.0 U/mg. Moreover, the “Relative Activity (%)” value at XylB-wt2 [2] (setting [5]) is recorded as 0%.

On to D-Ribose, for which the “Specific Activity (U/mg)” value at XylB-wt2 [2] (sugar concentration 100 mM) is 4.4 U/mg. At XylB-wt2 [2] (setting [5]), the “Relative Activity (%)” value was found to be 15%.

As for D-Glucose, on XylB-wt2 [1] (setting [6]), the “Vmax (U·mg^-1)” value was 10.7 ±0.1 U·mg^-1 and the “kcat” value came to 287 ± 50 min⁻¹. The “Vmax (U·mg^-1)” value on XylB-wt2 [1] (setting [4]) is listed as 10.7 ±0.1 U·mg^-1. The “Specific Activity (U/mg)” value at XylB-wt2 [2] (sugar concentration 100 mM) is given as 3.9 U/mg. Besides, the “Relative Activity (%)” value at XylB-wt2 [2] (setting [5]) is given as 13%.

As to `O=C(CO)[C@@H](O)[C@H](O)[C@H](O)CO` [D-Fructose], the “Specific Activity (U/mg)” value at XylB-wt2 [2] (sugar concentration 100 mM) is 0.0 U/mg. Besides, the “Relative Activity (%)” value at XylB-wt2 [2] (setting [5]) is given as 0%.

B1: XylB-wt2 (Caulobacter vibrioides NA1000) (protein)
chain: T1 sequence (B8H1Z0 1-248)
notes: made in house; host or cells: E. coli BL21(DE3)
As for B1, in data set [3], the Michaelis constant (Km) came out at 0.078 ± 0.01 mM; the Vmax is 30.1 ±1.0 U·mg^-1; the turnover number (kcat) was 810 ± 65 min⁻¹; the specificity constant (kcat/Km) – broadly, the turnover number divided by the Michaelis constant – came to 10385 mM⁻¹ min⁻¹.
